Among the data in ChEMBL document CHEMBL1159378, “Continuing studies on the cyanobacterium Lyngbya sp.: isolation and structure determination of 15-norlyngbyapeptin A and lyngbyabellin D” (J Nat Prod, 2003) are IC50 values, retold here.

The subject of the test is KB. Briefly: Cytotoxicity against human KB cells. The test is classed as functional, cell-based.
The molecule `CC[C@H](C)[C@@H](C(=O)N1CCC[C@H]1c1nccs1)N(C)C(=O)[C@H](CC(C)C)N(C)C(=O)[C@H](Cc1ccc(O)cc1)N(C)C(=O)/C=C(\C)OC` [15-NORLYNGBYAPEPTIN A] came in with an IC50 of 1.3 µM. Molecule `CCCC(=O)N[C@@H](C(C)C)[C@H](CC(=O)OC[C@@H](O)c1nc(C(=O)O[C@@H](CCCC(C)(Cl)Cl)[C@@H](C)C(=O)O[C@@H](c2nc(C(=O)OC)cs2)[C@](C)(O)CC)cs1)OC(C)=O` [LYNGBYABELLIN D] returned an IC50 of 0.1 µM. The same measure for `CC[C@H](C)[C@@H](C(=O)N1CCC[C@H]1c1nccs1)N(C)C(=O)[C@H](CC(C)C)N(C)C(=O)[C@H](Cc1ccc(OC)cc1)N(C)C(=O)/C=C(\C)OC` [LYNGBYAPEPTIN A]: above 5 µM.

A word on the IC50: it is the concentration needed to halve the response being measured. Low readings indicate inhibition by little substance, high ones a need for much substance.
